From the SangsterLogP compilation come the findings set out here.

A short description of the data set: method code SF-HPLC, from DOI: 10.1080/10826079308019563. The conditions noted are these: pH 11.0.
As for `NC1=NCC(CN2CCN(c3cccc(C(F)(F)F)c3)CC2)O1` (stereo not given), the pH-dependent lipophilicity (logD) (usually lipophilicity at a set pH, counting ionised and neutral species) worked out at 2.21.
`Cc1cccc(N2CCN(CC3CN=C(N)O3)CC2)c1C` (stereo not given) registered a log distribution coefficient (logD) of 2.19.
`NC1=NCC(CN2CCN(c3ncccn3)CC2)O1` (stereo not given): the logD worked out at 0.21.
In the case of `NC1=NCC(CN2CCN(c3ccc(Cl)c(Cl)c3)CC2)O1` (stereo not given) it was 2.4; in that of `NC1=NCC(CN2CCN(c3ccccc3)CC2)O1` (stereo not given), 0.85.
Molecule `NC1=NCC(CN2CCN(c3ccc(Cl)cc3)CC2)O1` (stereo not given) showed a logD of 1.71.
`NC1=NCC(CN2CCN(c3cccc(Cl)c3)CC2)O1` (stereo not given): the pH-dependent lipophilicity (logD) is 1.83.
As for `CCOc1ccccc1N1CCN(CC2CN=C(N)O2)CC1` (stereo not given), the logD stood at 1.21.
`COc1cccc(N2CCN(CC3CN=C(N)O3)CC2)c1` (stereo not given) yielded a log distribution coefficient (logD) of 0.87.
For `NC1=NCC(CN2CCN(c3ccc(F)cc3)CC2)O1` (stereo not given), the logD stood at 1.
`NC1=NCC(CN2CCN(c3ccccc3Cl)CC2)O1` (stereo not given) showed a logD of 1.87.
For `COc1ccc(N2CCN(CC3CN=C(N)O3)CC2)cc1` (stereo not given), the logD was 0.68.
The molecule `COc1ccccc1N1CCN(CC2CN=C(N)O2)CC1` (stereo not given) had a logD of 0.76.
With `NC1=NCC(CN2CCN(c3ccccn3)CC2)O1` (stereo not given), the pH-dependent lipophilicity (logD) amounted to 0.48.
In the case of `NC1=NCC(CN2CCN(c3ccc(C(F)(F)F)cc3)CC2)O1` (stereo not given), the logD is 1.23.
